How the values were obtained:
[1] = biological target: T1, KAT6A (Homo sapiens, UniProt Q92794); assay: KAT6A enzyme inhibition assay (SAMDI mass spectrometry); format: biochemical; conditions: His-TEV-KAT6A 501-784 enzyme construct
T1 construct: His-TEV tag (N, cleaved yes); made in house

[2] = biological target: T2, KAT5 (Homo sapiens, UniProt Q92993); assay: KAT5 enzyme inhibition assay (SAMDI mass spectrometry); format: biochemical; conditions: His-TEV-FL KAT5-Flag enzyme construct
T2 construct: His-TEV tag (N, cleaved yes); made in house
T2 sequence (Q92993 with tags, fused parts or gaps): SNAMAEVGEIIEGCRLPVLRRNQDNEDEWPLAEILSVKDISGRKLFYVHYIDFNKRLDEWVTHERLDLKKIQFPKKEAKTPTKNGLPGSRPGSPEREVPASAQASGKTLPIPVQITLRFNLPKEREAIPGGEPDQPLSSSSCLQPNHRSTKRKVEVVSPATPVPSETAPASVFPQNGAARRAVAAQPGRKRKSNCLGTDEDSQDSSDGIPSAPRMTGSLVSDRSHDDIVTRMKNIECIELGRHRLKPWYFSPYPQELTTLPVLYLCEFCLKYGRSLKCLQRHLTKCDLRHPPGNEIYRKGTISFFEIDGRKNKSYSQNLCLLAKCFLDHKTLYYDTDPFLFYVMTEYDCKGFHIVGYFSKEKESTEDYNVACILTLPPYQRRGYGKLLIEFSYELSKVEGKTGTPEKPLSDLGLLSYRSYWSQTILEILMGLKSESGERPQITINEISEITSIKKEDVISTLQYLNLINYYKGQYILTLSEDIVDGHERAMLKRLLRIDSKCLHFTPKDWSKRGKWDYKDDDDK

T1 sequence (Q92794 with tags, fused parts or gaps): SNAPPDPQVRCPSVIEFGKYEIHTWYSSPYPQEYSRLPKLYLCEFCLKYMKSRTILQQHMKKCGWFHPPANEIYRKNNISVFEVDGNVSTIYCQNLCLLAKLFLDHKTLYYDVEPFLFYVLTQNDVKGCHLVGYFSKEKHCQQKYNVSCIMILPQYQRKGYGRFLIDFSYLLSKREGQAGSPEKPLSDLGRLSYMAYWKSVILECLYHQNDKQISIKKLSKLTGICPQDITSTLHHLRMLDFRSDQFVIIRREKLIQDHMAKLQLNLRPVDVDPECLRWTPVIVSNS

| IC50 [1] [µM] | IC50 [2] [µM] | SMILES |
| --- | --- | --- |
| ≤ 10 | ≤ 10 | Cc1cc(-c2cccc(F)c2)cc(C(=O)NNS(=O)(=O)CC2CCCN(C(=O)C(C)C)C2)c1F (stereo not shown) [Compound I-292] |
| 50 to 100 | ≤ 10 | Cc1cc(Br)cc(C(=O)NNS(=O)(=O)C2CCCCC2)c1F [Compound I-293] |
| ≤ 10 | ≤ 10 | Cc1cc(-c2cccc(F)c2)cc(C(=O)NNS(=O)(=O)CC2CCCN(C(=O)C(C)(C)C)C2)c1F (stereo not shown) [Compound I-294] |
| > 100 | > 100 | Cc1cnc(CNC(=O)c2cc(-c3ccccc3)cc(C)c2F)[nH]1 [Compound I-295] |
| ≤ 10 | 10 to 50 | COCCN1CCCC(CS(=O)(=O)NNC(=O)c2cc(-c3ccccc3)cc(C)c2F)C1 (stereo not shown) [Compound I-297] |
| 10 to 50 | ≤ 10 | COc1cccc(-c2cc(C)c(F)c(C(=O)NNS(=O)(=O)CC3CCCCC3)c2)c1 [Compound I-298] |
| 50 to 100 | 10 to 50 | Cc1cc(Cl)cc(C(=O)NNS(=O)(=O)C2CCCCC2)c1F [Compound I-299] |
| 50 to 100 | 10 to 50 | CCc1cc(C)c(F)c(C(=O)NNS(=O)(=O)C2CCCCC2)c1 [Compound I-300] |
| 50 to 100 | 10 to 50 | Cc1cccc(-c2cc(C)c(F)c(C(=O)NNS(=O)(=O)C3CCCCC3)c2)c1 [Compound I-301] |
| 50 to 100 | 50 to 100 | COc1ccccc1-c1cc(C)c(F)c(C(=O)NNS(=O)(=O)C2CCCCC2)c1 [Compound I-302] |
| ≤ 10 | 10 to 50 | CC(=O)N1CC(CS(=O)(=O)NNC(=O)c2cc(-c3ccccc3)cc(C)c2F)C1 [Compound I-303] |
| ≤ 10 | 50 to 100 | COc1ccccc1-c1cc(C)c(F)c(C(=O)NNS(=O)(=O)c2ccccc2)c1 [Compound I-304] |
| 10 to 50 | > 100 | O=C(NNS(=O)(=O)c1cccc(Cl)c1)c1c(F)ccc(-c2cn[nH]c2)c1F [Compound I-305] |
| ≤ 10 | ≤ 10 | O=C(NNS(=O)(=O)C1CCCCC1)c1cc(-c2ccccc2)cc(Cl)c1F [Compound I-306] |
| ≤ 10 | 10 to 50 | Cc1cc(-c2ccccc2)cc(C(=O)NNS(=O)(=O)C(C)C2CCN(C(=O)OC(C)(C)C)CC2)c1F (stereo not shown) [Compound I-307] |
| > 100 | 50 to 100 | Cc1c(-c2ccccc2)ccc(Cl)c1C(=O)NNS(=O)(=O)C1CCCCC1 [Compound I-308] |
| > 100 | > 100 | Cc1cc(-c2ccccc2)cc(C(=O)NNc2ncccn2)c1F [Compound I-309] |
| ≤ 10 | 10 to 50 | COCC(=O)N1CC(CS(=O)(=O)NNC(=O)c2cc(-c3ccccc3)cc(C)c2F)C1 [Compound I-310] |
| > 100 | > 100 | COc1c(C)cc(-c2ccccc2)cc1C(=O)NNS(=O)(=O)C1CCCCC1 [Compound I-311] |
| > 100 | > 100 | O=C(NNS(=O)(=O)C1CCCCC1)c1c(F)ccc(-c2ccccc2)c1Cl [Compound I-312] |
| 10 to 50 | ≤ 10 | Cc1cc(-c2ccccc2)cc(C(=O)NNS(=O)(=O)C(C)C2CCCN(C(=O)OC(C)(C)C)C2)c1F (stereo not shown) [Compound I-313] |
| > 100 | > 100 | Cc1cc(-c2ccccc2)cc(C(=O)NNS(=O)(=O)C(C)C2CCCNC2)c1F (stereo not shown) [Compound I-314] |

| IC50 [1] [µM] | IC50 [2] [µM] | SMILES |
| --- | --- | --- |
| 10 to 50 | 10 to 50 | COc1cc(-c2ccccc2)cc(C(=O)NNS(=O)(=O)C2CCCCC2)c1F [Compound I-315] |
| > 100 | > 100 | Cc1c(C(=O)NNS(=O)(=O)c2cccc(Cl)c2)cnn1-c1ccccc1 [Compound I-316] |
| 10 to 50 | ≤ 10 | Cc1cc(-c2cc(F)cc(F)c2)cc(C(=O)NNS(=O)(=O)C2CCCCC2)c1F [Compound I-317] |
| 50 to 100 | 50 to 100 | Cc1cc(-c2ccccc2Cl)cc(C(=O)NNS(=O)(=O)C2CCCCC2)c1F [Compound I-318] |
| 50 to 100 | 10 to 50 | Cc1cc(-c2ccc(F)cc2)cc(C(=O)NNS(=O)(=O)C2CCCCC2)c1F [Compound I-319] |
| 10 to 50 | 10 to 50 | Cc1cc(-c2ccccc2)cc(C(=O)NNS(=O)(=O)CC2CCNC2)c1F (stereo not shown) [Compound I-320] |
| 10 to 50 | ≤ 10 | Cc1cc(-c2ccccc2F)cc(C(=O)NNS(=O)(=O)C2CCCCC2)c1F [Compound I-321] |
| ≤ 10 | ≤ 10 | CC(=O)N1CCCC(CS(=O)(=O)NNC(=O)c2cc(-c3ccccc3)cc(C)c2F)C1 (stereo not shown) [Compound I-322] |
| ≤ 10 | ≤ 10 | Cc1cc(-c2cccc(F)c2)cc(C(=O)NNS(=O)(=O)C2CCCCC2)c1F [Compound I-323] |
| 10 to 50 | ≤ 10 | Cc1cccc(-c2cc(C)c(F)c(C(=O)NNS(=O)(=O)C3CCCCC3)c2)c1 [Compound I-325] |
| ≤ 10 | ≤ 10 | Cc1cccc(-c2cc(C)c(F)c(C(=O)NNS(=O)(=O)c3ccccc3)c2)c1 [Compound I-326] |
| ≤ 10 | ≤ 10 | Cc1cc(-c2cccc(F)c2)cc(C(=O)NNS(=O)(=O)CC2CCN(C(=O)CCN(C)C(=O)OC(C)(C)C)CC2)c1F [Compound I-327] |
| 10 to 50 | 10 to 50 | CNCCC(=O)N1CCCC(CS(=O)(=O)NNC(=O)c2cc(-c3cccc(F)c3)cc(C)c2F)C1 (stereo not shown) [Compound I-328] |
| 10 to 50 | 10 to 50 | Cc1cc(-c2cccc(F)c2)cc(C(=O)NNS(=O)(=O)CC2CCCN(C(=O)CCN(C)C)C2)c1F (stereo not shown) [Compound I-329] |
| ≤ 10 | ≤ 10 | CC(=O)N1CCCC(CS(=O)(=O)NNC(=O)c2cc(-c3cccc(F)c3)cc(C)c2F)C1 (stereo not shown) [Compound I-330] |
| ≤ 10 | ≤ 10 | Cc1cc(-c2cccc(F)c2)cc(C(=O)NNS(=O)(=O)CC2CCCN(C(=O)CCN(C)C(=O)OC(C)(C)C)C2)c1F (stereo not shown) [Compound I-331] |
| > 100 | > 100 | O=C(NNS(=O)(=O)C1CCCCC1)c1nc(-c2ccccc2)ccc1F [Compound I-332] |
| 10 to 50 | 10 to 50 | CNCCC(=O)N1CCCC(CS(=O)(=O)NNC(=O)c2cc(-c3ccccc3)cc(C)c2F)C1 (stereo not shown) [Compound I-333] |
| 10 to 50 | 10 to 50 | COCCN1CCCC(C(C)S(=O)(=O)NNC(=O)c2cc(-c3ccccc3)cc(C)c2F)C1 (stereo not shown) [Compound I-334] |
| ≤ 10 | ≤ 10 | CC(=O)N1CCC(CS(=O)(=O)NNC(=O)c2cc(-c3ccccc3)cc(C)c2F)C1 (stereo not shown) [Compound I-335] |
| 10 to 50 | 10 to 50 | COCCN1CCC(CS(=O)(=O)NNC(=O)c2cc(-c3ccccc3)cc(C)c2F)C1 (stereo not shown) [Compound I-336] |
| 10 to 50 | 10 to 50 | Cc1cc(-c2ccccc2)cc(C(=O)NNS(=O)(=O)CC2CCCN(C)C2)c1F (stereo not shown) [Compound I-337] |

| IC50 [1] [µM] | IC50 [2] [µM] | SMILES |
| --- | --- | --- |
| > 100 | > 100 | Cc1cc(C2CCN(C)CC2)cc(C(=O)NNS(=O)(=O)C2CCCCC2)c1F [Compound I-338] |
| 10 to 50 | 10 to 50 | Cc1cc(-c2ccccc2)cc(C(=O)NNS(=O)(=O)CC2CCCN(CCO)C2)c1F (stereo not shown) [Compound I-339] |
| ≤ 10 | ≤ 10 | Cc1cc(-c2cccc(Cl)c2)cc(C(=O)NNS(=O)(=O)c2ccccc2)c1F [Compound I-340] |
| ≤ 10 | ≤ 10 | CC(=O)N1CCC(CS(=O)(=O)NNC(=O)c2cc(-c3ccccc3)cc(C)c2F)CC1 [Compound I-341] |
| 50 to 100 | 50 to 100 | Cc1cc(-c2cccc(Cl)c2)cc(C(=O)NNS(=O)(=O)CC2CCCCC2)c1F [Compound I-342] |
| 10 to 50 | 10 to 50 | Cc1cc(-c2ccccc2)cc(C(=O)NNS(=O)(=O)CC2CCN(CCO)CC2)c1F [Compound I-343] |
| ≤ 10 | ≤ 10 | COCC(=O)N1CCC(CS(=O)(=O)NNC(=O)c2cc(-c3ccccc3)cc(C)c2F)CC1 [Compound I-344] |
| > 100 | > 100 | Cn1cc2c(C(=O)NNS(=O)(=O)c3ccccc3)cc(-c3ccccc3)cc2n1 [Compound I-345] |
| ≤ 10 | ≤ 10 | COCC(=O)N1CCCC(CS(=O)(=O)NNC(=O)c2cc(-c3ccccc3)cc(C)c2F)C1 (stereo not shown) [Compound I-346] |
| > 100 | 10 to 50 | Cc1cc(C)c(F)c(C(=O)NNS(=O)(=O)C2CCCCC2)c1 [Compound I-347] |
| 10 to 50 | 10 to 50 | COc1cccc(-c2cc(C)c(F)c(C(=O)NNS(=O)(=O)C3CCCCC3)c2)c1 [Compound I-348] |
| 10 to 50 | 10 to 50 | Cc1cc(-c2ccccc2)cc(C(=O)NNS(=O)(=O)CC2CCN(C)CC2)c1F [Compound I-349] |
| ≤ 10 | > 100 | COc1cccc(-c2cc(C)c(F)c(C(=O)NNS(=O)(=O)c3ccccc3)c2)c1 [Compound I-350] |
| > 100 | 10 to 50 | Cc1cc(-c2ccccc2)cc(C(=O)NNS(=O)(=O)CC2CCCNC2)c1F (stereo not shown) [Compound I-351] |
| ≤ 10 | ≤ 10 | Cc1cc(-c2ccccc2)cc(C(=O)NNS(=O)(=O)CC2CCCN(C(=O)OC(C)(C)C)C2)c1F (stereo not shown) [Compound I-352] |
| ≤ 10 | ≤ 10 | Cc1cc(-c2cc(F)cc(F)c2)cc(C(=O)NNS(=O)(=O)c2ccccc2)c1F [Compound I-353] |
| > 100 | > 100 | O=C(NNS(=O)(=O)c1ccccc1)c1c(F)cccc1-c1ccccc1 [Compound I-354] |
| 10 to 50 | 10 to 50 | Cc1cc(-c2cc(F)cc(F)c2)cc(C(=O)NNS(=O)(=O)CC2CCCCC2)c1F [Compound I-355] |
| ≤ 10 | ≤ 10 | COCC(=O)N1CCC(CS(=O)(=O)NNC(=O)c2cc(-c3ccccc3)cc(C)c2F)C1 (stereo not shown) [Compound I-356] |
| > 100 | 50 to 100 | Cc1cc(-c2cccc(F)c2)cc(C(=O)NNS(=O)(=O)CC2CCNCC2)c1F [Compound I-357] |
| 10 to 50 | ≤ 10 | Cc1cc(-c2cccc(Cl)c2)cc(C(=O)NNS(=O)(=O)C2CCCCC2)c1F [Compound I-358] |

Reference: US20220267260A1, “COMPOUNDS CONTAINING A SULFONIC GROUP AS KAT INHIBITORS” (Epizyme, Inc., priority 2016, published 2022)
